In US10765114B2, “4-amino-6-(pyridyl and 2-substitutedphenyl)-picolinates and 6-amino-2-(pyridyl and 2-substitutedphenyl)-pyrimidine-4-carboxylates and their use as herbicides” (Dow AgroSciences LLC, priority 2013, dated 2020):

How the values were obtained:
Assay in all cases: Post-Emergent Test III (Wheat and Barley)
BROTE (downy brome) = format: in vivo, Bromus tectorum; details: for Visual Growth Reduction (%) 21 Days After Application, BROTE: postemergence
Protocol: (§1) Seeds of the desired test plant species were planted in Sun Gro MetroMix® 306 planting mixture, which typically has a pH of 6.0 to 6.8 and an organic matter content of about 30 percent, in plastic pots with a surface area of 103.2 square centimeters (cm^2). When required to ensure good germination and healthy plants, a fungicide treatment and/or other chemical or physical treatment was applied. The plants were grown for 7-36 days in a greenhouse with an approximate 14 h photoperiod which was maintained at about 18° C. during the day and 17° C. during the night. Nutrients and water were added on a regular basis and supplemental lighting was provided with overhead metal halide 1000-Watt lamps as necessary. The plants were employed for testing when they reached the second or third true leaf stage.
(§2) A weighed amount, determined by the highest rate to be tested, of each test compound was placed in a 25 mL glass vial and was dissolved in 4 mL of a 97:3 v/v mixture of acetone and DMSO to obtain concentrated stock solutions. […] The concentrated stock solutions obtained were diluted with 20 mL of an aqueous mixture containing acetone, water, isopropyl alcohol, DMSO, Agri-Dex crop oil concentrate, and X-77 surfactant in a 48:39:10:1.5:1.5:0.02 v/v ratio to obtain spray solutions containing the highest application rates. Additional application rates were obtained by serial dilution of 12 mL of the high rate solution into a solution containing 2 mL of 97:3 v/v mixture of acetone and DMSO and 10 mL of an aqueous mixture containing acetone, water, isopropyl alcohol, DMSO, Agri-Dex crop oil concentrate, and X-77 surfactant in a 48:39:10:1.5:1.5:0.02 v/v ratio to obtain ½×, ¼×, ⅛× and 1/16× rates of the high rate. Compound requirements are based upon a 12 mL application volume at a rate of 187 liters per hectare (L/ha). Formulated compounds were applied to the plant material with an overhead Mandel track sprayer equipped with 8002E nozzles calibrated to deliver 187 L/ha over an application area of 0.503 square meters at a spray height of 18 inches (43 cm) above the average plant canopy height. Control plants were sprayed in the same manner with the solvent blank.
(§3) The treated plants and control plants were placed in a greenhouse as described above and watered by subirrigation to prevent wash-off of the test compounds. After 21 dAYS, the condition of the test plants as compared with that of the untreated plants was determined visually and scored on a scale of 0 to 100 percent where 0 corresponds to no injury and 100 corresponds to complete kill and presented as indicated in Table A.
(§4) By applying the well-accepted probit analysis as described by J. Berkson in Journal of the American Statistical Society, 48, 565 (1953) and by D. Finney in “Probit Analysis” Cambridge University Press (1952), herbicidal injury of a specific compound at various rates can be used to calculate GR10, GR20, GR50, GR80 and GR90 values, which are defined as growth reduction factors that correspond to the effective dose of herbicide required to provide plant growth reduction (GR) of 10 percent, 20 percent, 50 percent, 80 percent and 90 percent, respectively. Probit analysis was applied to data collected from multiple dose rates of individual compounds utilizing the procedures explained in the following examples. The analysis of those dose rates is captured in the following tables.

BRSSS = format: in vivo; details: for Visual Growth Reduction (%) 21 Days After Application, BRSSS: postemergence
Outline: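 GR10-GR90 values were derived by probit analysis of visual injury (0 = no injury, 100 = complete kill versus untreated), rated 21 days after spraying. Two- to three-true-leaf plants were sprayed at 187 L/ha with serial rates (1× to 1/16×) in aqueous acetone/isopropanol/DMSO with crop oil and X-77. Greenhouse conditions were 18 °C day/17 °C night.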

[1] = tested on: PHAMI (littleseed canarygrass); format: in vivo, Phalaris minor; details: for Visual Growth Reduction (%) 21 Days After Application, PHAMI: postemergence
Protocol: as §1, §2, §3, §4

[2] = tested on: LAMPU (purple deadnettle); format: in vivo, Lamium purpureum; details: for Visual Growth Reduction (%) 21 Days After Application, LAMPU: postemergence
Protocol: as §1, §2, §3, §4

[3] = effective dose for growth reduction of 50 percent, probit analysis
[4] = effective dose for growth reduction of 80 percent, probit analysis
[5] = effective dose for growth reduction of 90 percent, probit analysis

Nc1c(F)c(-c2ccc(C(F)(F)F)nc2)nc(C(=O)O)c1Cl [Compound 46, 4-amino-5-chloro-3-fluoro-6′-(trifluoromethyl)-[2,3′-bipyridine]-6-carboxylic acid]
Visual Growth Reduction (%) 21 Days After Application, BROTE (BROTE (downy brome); 35 g ai/ha): E (45-59)
Visual Growth Reduction (%) 21 Days After Application, BROTE (BROTE (downy brome); 70 g ai/ha): D (60-74)
Visual Growth Reduction (%) 21 Days After Application, BROTE (BROTE (downy brome); 140 g ai/ha): B (85-94)
GR50, BROTE (BROTE (downy brome); [3]): 42 g ai/ha
GR80, BROTE (BROTE (downy brome); [4]): 93 g ai/ha
GR90, BROTE (BROTE (downy brome); [5]): 140 g ai/ha
Visual Growth Reduction (%) 21 Days After Application, BRSSS (BRSSS; 35 g ai/ha): D (60-74)
Visual Growth Reduction (%) 21 Days After Application, BRSSS (BRSSS; 70 g ai/ha): D (60-74)
Visual Growth Reduction (%) 21 Days After Application, BRSSS (BRSSS; 140 g ai/ha): C (75-84)
GR50, BRSSS (BRSSS; [3]): 11 g ai/ha
GR80, BRSSS (BRSSS; [4]): >140 g ai/ha
GR90, BRSSS (BRSSS; [5]): >140 g ai/ha
Visual Growth Reduction (%) 21 Days After Application, PHAMI ([1]; 35 g ai/ha): B (85-94)
Visual Growth Reduction (%) 21 Days After Application, PHAMI ([1]; 70 g ai/ha): B (85-94)
Visual Growth Reduction (%) 21 Days After Application, PHAMI ([1]; 140 g ai/ha): B (85-94)
GR50, PHAMI [1, 3]: 15 g ai/ha
GR80, PHAMI [1, 4]: 24 g ai/ha
GR90, PHAMI [1, 5]: 31 g ai/ha
Visual Growth Reduction (%) 21 Days After Application, LAMPU ([2]; 35 g ai/ha): D (60-74)
Visual Growth Reduction (%) 21 Days After Application, LAMPU ([2]; 70 g ai/ha): D (60-74)
Visual Growth Reduction (%) 21 Days After Application, LAMPU ([2]; 140 g ai/ha): A (95-100)
GR50, LAMPU [2, 3]: 14 g ai/ha
GR80, LAMPU [2, 4]: 47 g ai/ha
GR90, LAMPU [2, 5]: 89 g ai/ha
